Like-named read-outs stand apart in the source and are kept apart here.
Columns and labels:
[1] = test system: Key Grass and Sedge Weeds as well as Grass Crops; assay: Post-Emergent Test II: postemergent herbicidal activity, visual rating after 14 d (Table 8); type: in vivo; settings: post-emergence, 336 h; for pest or weed control at 35 g/ha: 35 g ai/ha; for pest or weed control at 70 g/ha: 70 g ai/ha; for pest or weed control at 140 g/ha: 140 g ai/ha
Summary of the method: (§1)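 Visual scoring at 14 d, 0 (no injury) to 100 (complete kill), relative to untreated plants. Postemergent overhead track-sprayer application, 187 L/ha, at a top rate plus serial ½×–1/16× rates, to plants grown 7–21 d at about 23–29° C day under a 15 h photoperiod, then subirrigated.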

[2] = test system: Key Broadleaf Weed and Crop Species; assay: Post-Emergent Test II: postemergent herbicidal activity, visual rating after 14 d (Table 7); type: in vivo; settings: post-emergence, 336 h; for pest or weed control at 35 g/ha: 35 g ai/ha; for pest or weed control at 70 g/ha: 70 g ai/ha; for pest or weed control at 140 g/ha: 140 g ai/ha
Summary of the method: as §1

[3] = barnyardgrass (Echinochloa crus-galli), read-out: Visual Growth Reduction (%) 14 Days After Application ECHCG
[4] = giant foxtail (Setaria faberi), read-out: Visual Growth Reduction (%) 14 Days After Application SETFA
[5] = maize, corn (Zea mays), read-out: Visual Growth Reduction (%) 14 Days After Application ZEAMX
[6] = rice (Oryza sativa), read-out: Visual Growth Reduction (%) 14 Days After Application ORYSA
[7] = wheat, spring (Triticum aestivum), read-out: Visual Growth Reduction (%) 14 Days After Application TRZAS
[8] = yellow nutsedge (Cyperus esculentus), read-out: Visual Growth Reduction (%) 14 Days After Application CYPES
[9] = lambsquarters (Chenopodium album), read-out: Visual Growth Reduction (%) 14 Days After Application CHEAL
[10] = oilseed rape, canola (Brassica napus), read-out: Visual Growth Reduction (%) 14 Days After Application BRSNN
[11] = redroot pigweed (Amaranthus retroflexus), read-out: Visual Growth Reduction (%) 14 Days After Application AMARE
[12] = sunflower (Helianthus annuus), read-out: Visual Growth Reduction (%) 14 Days After Application HELAN
[13] = velvetleaf (Abutilon theophrasti), read-out: Visual Growth Reduction (%) 14 Days After Application ABUTH
[14] = wild poinsettia (Euphorbia heterophylla), read-out: Visual Growth Reduction (%) 14 Days After Application EPHHL

Compound	pest or weed control at 35 g/ha [1, 3]	pest or weed control at 70 g/ha [1, 3]	pest or weed control at 140 g/ha [1, 3]	pest or weed control at 35 g/ha [1, 4]	pest or weed control at 70 g/ha [1, 4]	pest or weed control at 140 g/ha [1, 4]	pest or weed control at 35 g/ha [1, 5]	pest or weed control at 70 g/ha [1, 5]	pest or weed control at 140 g/ha [1, 5]	pest or weed control at 35 g/ha [1, 6]	pest or weed control at 70 g/ha [1, 6]	pest or weed control at 140 g/ha [1, 6]	pest or weed control at 35 g/ha [1, 7]	pest or weed control at 70 g/ha [1, 7]	pest or weed control at 140 g/ha [1, 7]	pest or weed control at 35 g/ha [1, 8]	pest or weed control at 70 g/ha [1, 8]	pest or weed control at 140 g/ha [1, 8]	pest or weed control at 35 g/ha [2, 9]	pest or weed control at 70 g/ha [2, 9]	also measured
COC(=O)c1nc(-c2cc3c(cc2F)OCO3)cc(N)c1Cl [Compound 45]	75 to 84%	75 to 84%	85 to 94%	60 to 74%	60 to 74%	85 to 94%	45 to 59%	60 to 74%	75 to 84%	45 to 59%	60 to 74%	60 to 74%	30 to 44%	45 to 59%	60 to 74%	30 to 44%	30 to 44%	60 to 74%	85 to 94%	95 to 100%	pest or weed control at 140 g/ha [2, 9]: 95 to 100%; pest or weed control at 35 g/ha [2, 10]: 75 to 84%; pest or weed control at 70 g/ha [2, 10]: 95 to 100%; pest or weed control at 140 g/ha [2, 10]: 95 to 100%; pest or weed control at 35 g/ha [2, 11]: 95 to 100%; pest or weed control at 70 g/ha [2, 11]: 95 to 100%; pest or weed control at 140 g/ha [2, 11]: 95 to 100%; pest or weed control at 35 g/ha [2, 12]: 60 to 74%; pest or weed control at 70 g/ha [2, 12]: 60 to 74%; pest or weed control at 140 g/ha [2, 12]: 75 to 84%; pest or weed control at 35 g/ha [2, 13]: 95 to 100%; pest or weed control at 70 g/ha [2, 13]: 95 to 100%; pest or weed control at 140 g/ha [2, 13]: 95 to 100%; pest or weed control at 35 g/ha [2, 14]: 75 to 84%; pest or weed control at 70 g/ha [2, 14]: 85 to 94%; pest or weed control at 140 g/ha [2, 14]: 95 to 100%
COC(=O)c1nc(-c2c(F)cc3c(c2F)OC(F)(F)O3)cc(N)c1Cl [Compound 46]	45 to 59%	60 to 74%	85 to 94%	0 to 29%	0 to 29%	0 to 29%	0 to 29%	45 to 59%	75 to 84%	0 to 29%	0 to 29%	0 to 29%	0 to 29%	30 to 44%	45 to 59%	95 to 100%	95 to 100%	95 to 100%	95 to 100%	95 to 100%	pest or weed control at 140 g/ha [2, 9]: 95 to 100%; pest or weed control at 35 g/ha [2, 10]: 95 to 100%; pest or weed control at 70 g/ha [2, 10]: 95 to 100%; pest or weed control at 140 g/ha [2, 10]: 95 to 100%; pest or weed control at 35 g/ha [2, 11]: 95 to 100%; pest or weed control at 70 g/ha [2, 11]: 95 to 100%; pest or weed control at 140 g/ha [2, 11]: 95 to 100%; pest or weed control at 35 g/ha [2, 12]: 0 to 29%; pest or weed control at 70 g/ha [2, 12]: 30 to 44%; pest or weed control at 140 g/ha [2, 12]: 60 to 74%; pest or weed control at 35 g/ha [2, 13]: 85 to 94%; pest or weed control at 70 g/ha [2, 13]: 95 to 100%; pest or weed control at 140 g/ha [2, 13]: 95 to 100%; pest or weed control at 35 g/ha [2, 14]: 30 to 44%; pest or weed control at 70 g/ha [2, 14]: 60 to 74%; pest or weed control at 140 g/ha [2, 14]: 85 to 94%
COC(=O)c1nc(-c2ccc3c(c2OC)OC(F)(F)O3)cc(N)c1Cl [Compound 47]	0 to 29%	0 to 29%	0 to 29%	0 to 29%	0 to 29%	0 to 29%	0 to 29%	0 to 29%	0 to 29%	0 to 29%	0 to 29%	0 to 29%	0 to 29%	0 to 29%	0 to 29%	0 to 29%	0 to 29%	0 to 29%	30 to 44%	30 to 44%	pest or weed control at 140 g/ha [2, 9]: 45 to 59%; pest or weed control at 35 g/ha [2, 10]: 60 to 74%; pest or weed control at 70 g/ha [2, 10]: 60 to 74%; pest or weed control at 140 g/ha [2, 10]: 60 to 74%; pest or weed control at 35 g/ha [2, 11]: 0 to 29%; pest or weed control at 70 g/ha [2, 11]: 75 to 84%; pest or weed control at 140 g/ha [2, 11]: 85 to 94%; pest or weed control at 35 g/ha [2, 12]: 30 to 44%; pest or weed control at 70 g/ha [2, 12]: 30 to 44%; pest or weed control at 140 g/ha [2, 12]: 45 to 59%; pest or weed control at 35 g/ha [2, 13]: 0 to 29%; pest or weed control at 70 g/ha [2, 13]: 30 to 44%; pest or weed control at 140 g/ha [2, 13]: 60 to 74%; pest or weed control at 35 g/ha [2, 14]: 0 to 29%; pest or weed control at 70 g/ha [2, 14]: 0 to 29%; pest or weed control at 140 g/ha [2, 14]: 0 to 29%
